Earlier results in patent US8097625B2, “Combination of sedative and a neurotransmitter modulator, and methods for improving sleep quality and treating depression” (priority 2003, dated 2012).
Structures can show the parent of a compound that is named as a salt.

Tests used:
mice = conditions: reference agents, scores below 40 denote behavioral depression; cited from earlier work
[1] = cited from earlier work
[2] = humans, cited from earlier work
[3] = humans, 20 or 40 mg b.i.d. for 7 days; cited from earlier work
GABA uptake system = system: GABA uptake system; set-up: dose or concentration left out as unconfirmed; conditions: cited from earlier work
[4] = target: GABA:2-oxo-glutarate aminotransferase (Homo sapiens, UniProt P80404); conditions: 10^−3 M; cited from earlier work
Chain of GABA:2-oxo-glutarate aminotransferase (P80404 29-500): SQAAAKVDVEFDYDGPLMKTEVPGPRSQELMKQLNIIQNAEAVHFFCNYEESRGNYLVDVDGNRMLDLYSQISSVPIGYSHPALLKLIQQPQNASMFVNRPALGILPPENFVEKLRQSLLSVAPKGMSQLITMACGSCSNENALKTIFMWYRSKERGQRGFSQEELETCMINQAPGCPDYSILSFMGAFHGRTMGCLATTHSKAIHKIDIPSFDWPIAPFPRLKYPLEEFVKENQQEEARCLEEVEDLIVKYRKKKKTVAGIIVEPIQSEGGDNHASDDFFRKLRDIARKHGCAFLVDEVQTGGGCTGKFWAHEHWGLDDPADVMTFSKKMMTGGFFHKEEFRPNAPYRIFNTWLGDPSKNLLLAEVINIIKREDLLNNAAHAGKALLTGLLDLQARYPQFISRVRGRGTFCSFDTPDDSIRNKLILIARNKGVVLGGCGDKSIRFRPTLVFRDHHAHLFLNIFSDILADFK

[5] = system: lumbar dorsal horn interneurones and Renshaw cells; conditions: cats anaesthetized with pentobarbitone sodium; electrophoretic currents; cited from earlier work
[6] = system: L-glutamate 1-carboxylase; conditions: 10^−3 M; cited from earlier work
[7] = cited from earlier work; remark: listed apart in the source
[8] = oral, 10 mg or 20 mg daily doses; cited from earlier work
[9] = oral; cited from earlier work
[10] = system: norepinephrine and serotonin reuptake; conditions: cited from earlier work
[11] = target: norepinephrine transporter (Homo sapiens, UniProt P23975); conditions: cited from earlier work
Chain of norepinephrine transporter (P23975 whole entry): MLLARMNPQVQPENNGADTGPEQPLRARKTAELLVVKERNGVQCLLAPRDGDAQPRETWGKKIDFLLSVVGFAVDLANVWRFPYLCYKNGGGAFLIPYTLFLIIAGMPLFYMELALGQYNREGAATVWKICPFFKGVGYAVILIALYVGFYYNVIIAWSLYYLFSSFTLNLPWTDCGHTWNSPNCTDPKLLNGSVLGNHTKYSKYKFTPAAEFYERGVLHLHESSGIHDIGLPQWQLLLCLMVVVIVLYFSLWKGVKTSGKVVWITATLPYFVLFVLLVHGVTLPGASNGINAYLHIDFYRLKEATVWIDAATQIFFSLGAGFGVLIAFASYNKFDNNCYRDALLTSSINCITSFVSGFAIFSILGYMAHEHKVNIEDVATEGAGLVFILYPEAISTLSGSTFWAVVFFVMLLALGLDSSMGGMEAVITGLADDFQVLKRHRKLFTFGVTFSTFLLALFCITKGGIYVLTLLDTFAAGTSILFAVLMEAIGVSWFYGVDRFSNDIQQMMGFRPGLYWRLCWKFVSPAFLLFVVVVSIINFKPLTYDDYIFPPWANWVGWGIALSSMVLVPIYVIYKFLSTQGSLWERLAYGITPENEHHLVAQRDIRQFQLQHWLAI

[12] = system: patients with major depression; conditions: 24 patients (37 trials) with major depression, 3 weeks; cited from earlier work

CCCC(C)(COC(N)=O)COC(N)=O [meprobamate]
ED100 (mice): 300 mg/kg

CNCCCN1c2ccccc2CCc2ccccc21 [Desipramine hydrochloride, 10,11-Dihydro-N-methyl-5H-dibenz[b,f]azepine-5-propanamine]
solubility in water (in words) [1]: soluble in water

CNCCCC12CCC(c3ccccc31)c1ccccc12 [Maprotiline hydrochloride, N-Methyl-9,10-ethanoanthracene-9(10H)-propanamine]
solubility in water (in words) [1]: slightly soluble in water

CCC1(c2ccccc2)CCC(=O)NC1=O (stereo not drawn) [glutethimide]
ED100 (mice): 300 mg/kg

CC(NC(C)(C)C)C(=O)c1cccc(Cl)c1 (stereo not drawn) [Bupropion]
mean elimination half-life (±SD) ([2]; after chronic dosing): 21 (±9) hours
terminal phase mean half-life ([2]; oral administration): 14 h

COC(=O)[C@H]1[C@H]2C[C@@H]3c4[nH]c5cc(OC)ccc5c4CCN3C[C@H]2C[C@@H](OC(=O)c2cc(OC)c(OC)c(OC)c2)[C@@H]1OC [reserpine]
ED100 (mice): 50 mg/kg

CCCC(C)C1(CC)C(=O)NC(=O)NC1=O (stereo not drawn) [pentobarbital]
ED100 (mice): 100 mg/kg

CNCC[C@@H](Oc1ccccc1C)c1ccccc1 [tomoxetine, (R)-(−)-N-methyl-3-(2-methylphenoxy)-3-phenylpropylamine]
drug-related adverse effects [3]: no serious drug-related adverse effects were observed

Oc1noc2c1CCNC2 [gaboxadol, 4,5,6,7-tetrahydroisoxazolo[5,4-c]pyridin-3-ol]
interaction with the GABA uptake system (GABA uptake system): did not interact
interaction with GABA:2-oxo-glutarate aminotransferase [4]: did not interact
potency versus GABA, inhibition of the firing of central neurones [5]: relatively more potent than GABA
interaction with L-glutamate 1-carboxylase [6]: did not interact

CC(=O)N(C)c1cccc(-c2ccnc3c(C(=O)c4cccs4)cnn23)c1 [Indiplon, N-methyl-N-(3-{3-[2-thienylcarbonyl]-pyrazolo-[1,5-a]-pyrimidin-7-yl}-phenyl)acetamide]
half-life in vivo [7]: approximately 1.3 hours
resulting pH of solution in water ([1]; at approximately 20-30 µg/mL): approximately 8.0
soluble in water ([1]; resulting pH approximately 8.0): 20 to 30 µg/mL

O=C(CCCN1CCC(O)(c2ccc(Cl)cc2)CC1)c1ccc(F)cc1 [haloperidol]
ED100 (mice): 10 mg/kg

CNCCC(Oc1ccc(C(F)(F)F)cc1)c1ccccc1.Cl (racemic) [Fluoxetine hydrochloride, N-methyl-3-(p-trifluormethylphenoxy)3-phenylpropylamine]
elimination half-life [8]: 24 to 220 h
elimination half-life, averaging [8]: 48 to 72 h

Cc1ccc(-c2nc3ccc(C)cn3c2CC(=O)N(C)C)cc1 [zolpidem, N,N,6-trimethyl-2-(4-methylphenyl)-imidazo [1,2-s]pyridine-3-acetamide]
duration of action [9]: up to 6 hours

CCN(CC)C(=O)[C@@]1(c2ccccc2)C[C@H]1CN (single isomer, unassigned) [levrogyral enantiomer]
activity in inhibiting norepinephrine and serotonin reuptake versus the racemic mixture [10]: much less potent

CCN(CC)C(=O)[C@@]1(c2ccccc2)C[C@H]1CN (single isomer, unassigned) [dextrogyral enantiomer of milnacipran]
activity in inhibiting norepinephrine and serotonin reuptake versus the racemic mixture [10]: about twice as active

c1ccc(CCCN2CCN(CCOC(c3ccccc3)c3ccccc3)CC2)cc1 [GBR-12935, 1-[2-(diphenylmethoxy)ethyl]-4-(3-phenylpropyl)piperazine dihydrochloride]
Ki [11]: 225 nM

CNCC(O)CC12CCC(c3ccccc31)c1ccccc12 (racemic) [oxaprotiline, (±)-α-[(Methylamino)-methyl]-9,10-ethanoanthracene-9(10H)-ethanol]
Hamilton Scores [12]: significant reduction
